pEC50: −log10 of the molar value.
Test: ET-1 Assay: Fibroblasts (primary human lung and dermal, HFL-1, 3T3 etc) are seeded in 96-well plates at ~15000 cells/well and serum starved for 0-48 hours. After media exchange, compounds serially diluted in DMSO are added to the cells. After a brief incubation of ~30 min, stimulants (TGFb, serum, LPA etc) are added followed by further incubation for 16-48 hours. Media is then harvested and stored frozen in plate format for later endothelin-1 (ET-1) determination by ELISA. Toxicity measurements are made using the ATPlite kit (Perkin-Elmer). ET-1 is quantified using an ELISA kit (R&D Systems). The amount of ET-1 produced in the assay wells are back-calculated using the ELISA standard. The ability of a compound to inhibit ET-1 production is typically analyzed by fitting dose-response curves to a 4-parameter logistic function to obtain an EC50 value.
Conditions: HFL1

SMILES	EC50	pEC50
Cc1cc(=O)n(-c2ccc(OC(F)(F)F)cc2)cc1-c1cccc(Cl)c1	in the range around 125 µM	
COCCOCCOCCOc1ccc(-n2cc(C)ccc2=O)cc1		< 3.70
CCn1cnc2c(-c3cn[nH]c3)cn(-c3ccc(OC(F)(F)F)cc3)c(=O)c21		> 4.30
CCn1nc2c(-c3ccc(F)cc3)cn(-c3ccc(OC(F)(F)F)cc3)c(=O)c2n1		< 3.70
Cc1cc(=O)n(-c2ccc(C(F)(F)F)cc2)cc1-c1ccccc1		> 4.30
CC(C)n1ccc2c(-c3cn[nH]c3)cn(-c3ccc(OC(F)(F)F)cc3)c(=O)c21		> 4.30
CCCNC(=O)c1cc(=O)n(-c2ccc(OC(F)(F)F)cc2)cc1-c1cnn(C)c1		< 3.70
Cc1cc(=O)n(-c2ccc(Cl)cc2)cc1-c1ccc2ocnc2c1		< 3.70
CC(=O)n1cc(-c2ccc(=O)n(-c3ccccc3)c2)cn1		< 3.70
Cn1cc(-c2cn(-c3ccc(OC(F)(F)F)cc3)c(=O)cc2Oc2ccccc2F)cn1		< 3.70
Cn1cc(-c2cn(-c3ccc(OC(F)(F)F)cc3)c(=O)c3c2OCC(=O)N3Cc2ccccc2)cn1		< 3.70
CCn1nnc2c(=O)n(-c3ccc(OC(F)(F)F)cc3)cc(-c3cnn(C)c3)c21		> 4.30
Cc1ccc(=O)n(-c2ccc(OC(F)(F)F)cc2)n1		> 4.30
CCOc1ccc(-n2cc(C(F)(F)F)ccc2=O)c(C)c1	in the range around 125 µM	
O=c1cc(C(F)(F)F)c(-c2ccc(F)cc2)cn1-c1ccc(OC(F)(F)F)cc1	in the range around 125 µM	
O=c1ccc(C2CCCCC2)cn1-c1ccccc1	in the range around 125 µM	
Cc1c(-c2ccc(=O)n(-c3ccc(OC(F)(F)F)cc3)c2)cnn1C		> 4.30
Cn1cc(-c2cn(-c3ccc(OC(F)(F)F)cc3)c(=O)cc2OCCN2CCOCC2=O)cn1	in the range around 125 µM	
CCCNC(=O)Nc1cc(=O)n(-c2ccc(OC(F)(F)F)cc2)cc1-c1ccc(F)cc1		< 3.70
Cc1cc(=O)n(-c2cccc3c2OCO3)cc1-c1cnn(C)c1		< 3.70
COc1cccc(-n2cc(C(C)=O)ccc2=O)c1		< 3.70
COc1cccc(-n2cc(-c3ccc(S(N)(=O)=O)cc3)ccc2=O)c1		< 3.70
CCn1ccc2c(-c3cnn(CCO)c3)cn(-c3ccc(OC(F)(F)F)cc3)c(=O)c21		> 4.30
O=c1ccc(-c2ccc(F)cc2)nn1-c1ccc(OC(F)(F)F)cc1		< 3.70
O=C1COc2c(-c3ccc(F)cc3)cn(-c3ccc(OC(F)(F)F)cc3)c(=O)c2N1Cc1ccccc1		< 3.70

SMILES	EC50	pEC50
Cc1cc(=O)n(-c2ccc(OC(F)(F)F)cc2)cc1-c1ccc(F)c(F)c1	in the range around 125 µM	
Cn1cc(-c2cn(-c3ccc(OC(F)(F)F)cc3)c(=O)c3c2nnn3CCF)cn1	in the range around 125 µM	
Cc1cc(=O)n(-c2ccc(OC(F)(F)F)cc2)cc1C(F)(F)F		< 3.70
CCOc1ccc(-n2cc(-c3cnn(C)c3)c(OCCOC)cc2=O)c(C)c1		> 4.30
CCC(=O)Nc1cc(=O)n(-c2ccc(OC(F)(F)F)cc2)cc1-c1ccc(F)cc1		< 3.70
Cc1ccc(=S)n(-c2ccc(OC(C)C)cc2)c1		< 3.70
CC(C)OC(=O)Nc1cc(=O)n(-c2ccc(OC(F)(F)F)cc2)cc1-c1cnn(C)c1		< 3.70
O=c1c2c(c(-c3cn[nH]c3)cn1-c1ccc(OC(F)(F)F)cc1)CCCC2	in the range around 125 µM	
Cc1cc(=O)n(-c2cccc(OC(F)(F)F)c2)cc1-c1ccc(F)cc1		> 4.30
Cn1cc(-c2cn(-c3ccc(OC(F)(F)F)cc3)c(=O)c3c2OCC(=O)N3)cn1		< 3.70
O=c1ccc(-c2ccnnc2)cn1-c1ccc(OC(F)(F)F)cc1	in the range around 125 µM	
Cc1cc(=O)n(-c2ccc(OC(F)(F)F)cc2)cc1-c1ccc2c(c1)OCC(=O)N2C		> 4.30
CCOc1ccc(-n2cc(-c3cnn(C)c3)c(NCc3cc(F)cc(F)c3)cc2=O)c(C)c1		> 4.30
Cc1cc(=O)n(-c2ccc(OC(F)(F)F)cc2)cc1-c1nnnn1C		< 3.70
O=c1ccc2c(n1-c1ccccc1)CCC2		< 3.70
Cc1ccc(=O)n(CCc2ccccc2)c1	in the range around 125 µM	
O=c1ccc(C(F)(F)F)cn1-c1ccc(OC(F)(F)F)cc1		< 3.70
CCOc1ccc(-n2cc(-c3cn[nH]c3)c3c(c2=O)CCCC3)c(C)c1		> 4.30
O=c1ccc(-c2cnn(Cc3ccccc3)c2)cn1-c1ccccc1	in the range around 125 µM	
Cc1cc(=O)n(-c2ccc(Cl)cc2)cc1-c1ccc(F)cc1		< 3.70
O=c1ccc(-c2cn[nH]c2)cn1-c1cccc(C(F)(F)F)c1		< 3.70
COCCOc1cc(=O)n(-c2ccc(OC(F)(F)F)cc2)cc1-c1ccc(F)cc1		< 3.70
Cc1cc(=O)n(-c2ccc(OC(F)(F)F)cc2)cc1-c1ccc2[nH]c(=O)oc2c1		< 3.70
Cn1cc(-c2cn(-c3ccc(F)cc3)c(=O)cc2Oc2ccccc2)cn1		> 4.30
Cc1cc(=O)n(-c2ccccc2C)cc1-c1ccc(F)cc1	in the range around 125 µM	

SMILES	EC50	pEC50
O=c1cc(Cl)c(-c2ccc(F)cc2)cn1-c1ccc(OC(F)(F)F)cc1		> 4.30
COC(=O)Nc1cc(=O)n(-c2ccc(OC(F)(F)F)cc2)cc1-c1ccc(F)cc1		< 3.70
O=C1Cc2ccccc2N1c1ccc(OC(F)(F)F)cc1	in the range around 125 µM	
Cc1cc(=O)n(-c2ccc(OC(F)(F)F)cc2)cc1-c1ccncc1		< 3.70
O=c1c2nsnc2c(-c2ccc(F)cc2)cn1-c1ccc(OC(F)(F)F)cc1		< 3.70
NS(=O)(=O)c1ccc(-c2ccc(=O)n(-c3ccc(Cl)cc3)c2)cc1		< 3.70
Cc1cc(=O)n(-c2ccc(OC(F)(F)F)cc2)cc1-c1cccc2c1OCC(=O)N2		< 3.70
CCn1c(=O)oc2cc(-c3cn(-c4ccc(OC(F)(F)F)cc4)c(=O)cc3C)ccc21		> 4.30
O=c1cc(O)c(-c2ccc(F)cc2)cn1-c1ccc(OC(F)(F)F)cc1	in the range around 125 µM	
Cc1n[nH]c(C)c1-c1ccc(=O)n(-c2ccncc2)c1		< 3.70
CCOc1ccc(-n2cc(-c3cnn(C)c3)c(OC)cc2=O)c(C)c1		> 4.30
COCCOc1ccc(-n2cc(-c3cnn(C)c3)c(Oc3ccccc3)cc2=O)cc1		> 4.30
Cc1nc2c(=O)n(-c3ccc(OC(F)(F)F)cc3)ccc2o1		< 3.70
CCOc1ccc(-n2cc(-c3ccc(F)cc3)ccc2=O)c(C)c1		< 3.70
Cn1cc(-c2cn(-c3ccc(C#N)cc3)c(=O)c3c2ccn3C)cn1		< 3.70
O=c1ccc(-c2cccc(Cl)c2)cn1-c1cccc(F)c1		> 4.30
Cn1cc(-c2cn(-c3ccc(OC(F)(F)F)cc3)c(=O)cc2NCCc2ccccc2)cn1		< 3.70
Cc1cc(=O)n(-c2ccc(OC(F)(F)F)cc2)cc1-c1ccc2c(c1)OCO2	in the range around 125 µM	
CN1CCN(CCOc2cc(=O)n(-c3ccc(OC(F)(F)F)cc3)cc2-c2cnn(C)c2)CC1	in the range around 125 µM	
Cn1cc(-c2cn(-c3ccc(OC(F)(F)F)cc3)c(=O)c3c2ccn3CCO)cn1		> 4.30
Cn1cc(-c2cn(-c3ccc(OC(F)(F)F)cc3)c(=O)c3c2ccn3C)cn1		> 4.30
CNc1cc(=O)n(-c2ccc(OC(F)(F)F)cc2)cc1-c1ccc(F)cc1		< 3.70
CC(=O)Nc1cccc(-n2cc(-c3ccc(F)cc3)c(C)cc2=O)c1		< 3.70
Cn1cc(-c2cn(-c3ccc(OC(F)(F)F)cc3)c(=O)c3c2CCCC3)cn1		> 4.30
O=c1ccc(-c2cccc(Cl)c2)cn1-c1ccccc1	in the range around 125 µM	

SMILES	EC50	pEC50
CN(Cc1ccccc1)c1cc(=O)n(-c2ccc(OC(F)(F)F)cc2)cc1-c1cnn(C)c1		> 4.30
O=c1c2c(ccn2Cc2ccccc2)c(-c2ccc(F)cc2)cn1-c1ccc(OC(F)(F)F)cc1		< 3.70
Cc1cc(=O)n(-c2ccc(OC(F)(F)F)cc2)cc1-c1cccc2c1OCCO2		> 4.30
CCOc1ccc(-n2cc(-c3cnn(C)c3)c(NCc3ccccc3)cc2=O)c(C)c1		> 4.30
Cc1cc(=O)n(-c2ccc(OC(F)(F)F)cc2)cc1-c1ccc2scnc2c1		> 4.30
Cc1cc(=O)n(-c2ccc(OC(F)(F)F)cc2)cc1-c1cccc2c1OCO2		> 4.30
COc1ccc(-c2ccc(=O)n(-c3cccc(OC)c3)c2)cc1	in the range around 125 µM	
O=C1CNCCN1CCOc1cc(=O)n(-c2ccc(OC(F)(F)F)cc2)cc1-c1ccc(F)cc1		< 3.70
Cn1cc(-c2cn(-c3ccc(OC(F)(F)F)cc3)c(=O)cc2NCc2c(F)cccc2F)cn1	in the range around 125 µM	
CCCCOC(=O)Nc1cc(=O)n(-c2ccc(OC(F)(F)F)cc2)cc1-c1cnn(C)c1	in the range around 125 µM	
Nc1cc(=O)n(-c2ccc(OC(F)(F)F)cc2)cc1-c1ccc(F)cc1	in the range around 125 µM	
Cn1cc(-c2cn(-c3ccc(Cl)cc3)c(=O)c3c2ccn3C)cn1		> 4.30
CN1CCN(CCOc2cc(=O)n(-c3ccc(OC(F)(F)F)cc3)cc2-c2ccc(F)cc2)CC1		> 4.30
Cn1cc(-c2cn(-c3ccc(OC(F)(F)F)cc3)c(=O)c3[nH]nnc23)cn1		> 4.30
COCCOc1cc(=O)n(-c2ccc(OC(F)(F)F)cc2)cc1-c1cnn(C)c1		< 3.70
O=C1COc2c(-c3ccc(F)cc3)cn(-c3ccc(OC(F)(F)F)cc3)c(=O)c2N1		< 3.70
COCCOCCOCCOc1cccc(-n2cc(C)ccc2=O)c1		< 3.70
CCn1c(=O)oc2c(-c3cn(-c4ccc(OC(F)(F)F)cc4)c(=O)cc3C)cccc21		< 3.70
CC(C)OC(=O)Nc1cc(=O)n(-c2ccc(OC(F)(F)F)cc2)cc1-c1ccc(F)cc1		< 3.70
CCn1nc2c(-c3cnn(C)c3)cn(-c3ccc(OC(F)(F)F)cc3)c(=O)c2n1		> 4.30
Cn1cc(-c2cn(-c3ccc(OC(F)(F)F)cc3)c(=O)cc2Nc2ccccc2)cn1		< 3.70
CCn1ccc2c(-c3cn[nH]c3)cn(-c3ccc(OC(F)(F)F)cc3)c(=O)c21		> 4.30
Cc1cc(-c2cnn(C)c2)cn(-c2ccccc2)c1=O	in the range around 125 µM	

From ChEMBL document CHEMBL5725356, “Anti-fibrotic pyridinones” (2017)
